Where two headings read alike, the source gives them in different places.
Assays:
[1] = biological target: T1, p53 Y220C mutant protein (amino acid residues 94-293) (Homo sapiens, UniProt P04637, Y220C); assay: Surface Plasmon Resonance (SPR) assay, Kd_kinetic; format: binding; details: read-out: SPR P53 Y220C KD kinetic
T1 construct: p53 Y220C mutant protein (amino acid residues 94-293)
Procedure, shortened: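 Binding measured by SPR on a Biacore 8K in running buffer of 50 mM Tris pH 7.5, 100 mM NaCl, 1 mM DTT, 0.01% Brij35, 0.05% Tween-20, 1% DMSO.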

p53 Y220C = p53 Y220C (Homo sapiens, UniProt P04637, Y220C); assay: Luciferase Reporter Assay (Luc), p53 response element, NClH1299 cells with inducible p53 Y220C; format: cell-based; details: 6 hour; for AC50: read-out: Luc P53 Y220C AC50
Procedure, shortened: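 Cells were seeded at 5,000 per well and induced with 0.5 ug/mL doxycycline for 24 hours, then exposed to compound for 6 hours. One-Glo reagent was added, plates shaken 5 minutes at room temperature, and luminescence read immediately.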

NUGC3 p53 Y220C = assay: Cell Proliferation Assay (CellTiter-Glo, CTG), NUGC3 p53 Y220C; format: cell-based; details: Homo sapiens, NUGC-3, 120 h, NUGC3 cells, 5 days
Procedure, shortened: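 NClH1299 lines stably transduced with Tet-inducible p53 Y220C or R273H, plus NUGC3, were treated with compound for 5 days at 250-500 cells/well. IC50 derived from CellTiter-Glo luminescent signal after 10 min room-temperature incubation.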

H1299 p53 Y220C = assay: Cell Proliferation Assay (CellTiter-Glo, CTG), H1299 p53 Y220C (NClH1299-inducible p53 Y220C); format: cell-based; details: Homo sapiens, NCI-H1299, 120 h, NClH1299-inducible p53 Y220C cells, 5 days
Procedure, shortened: (§1)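 Cells seeded at 250-500 per well and exposed to compound for 5 days. Viability read by CellTiter-Glo luminescence after 10 min at room temperature; IC50 calculated. H1299 lines carry Tet-One inducible p53 mutant constructs introduced by lentiviral transduction.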

H1299 p53 R273H = assay: Cell Proliferation Assay (CellTiter-Glo, CTG), H1299 p53 R273H (NClH1299-inducible p53 R273H); format: cell-based; details: Homo sapiens, NCI-H1299, 120 h, NClH1299-inducible p53 R273H cells, 5 days
Procedure, shortened: as §1

[2] = NClH1299 cells with inducible p53 Y220C
[3] = NClH1299 cells with inducible p53 Y220C, 10 uM tool compound as positive control
[4] = luciferase reporter, NClH1299 inducible p53 Y220C

T1 sequence (P04637 94-293, stated change not applied): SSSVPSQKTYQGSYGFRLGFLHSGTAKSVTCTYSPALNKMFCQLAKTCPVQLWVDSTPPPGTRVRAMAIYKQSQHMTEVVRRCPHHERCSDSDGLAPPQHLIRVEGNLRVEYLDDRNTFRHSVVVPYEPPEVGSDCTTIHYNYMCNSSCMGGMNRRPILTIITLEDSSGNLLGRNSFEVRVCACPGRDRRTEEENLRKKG

| Compound | Kd ([1]; SPR, p53 Y220C) [nM] | AC50 (p53 Y220C; [2]) [nM] | Emax (p53 Y220C; [3]) [%] | IC50 (NUGC3 p53 Y220C) [nM] | IC50 (H1299 p53 Y220C) [nM] | IC50 (H1299 p53 R273H) [nM] | AC50 (p53 Y220C; [4]) [nM] | Emax (p53 Y220C; [4]) [%] | IC50 (NUGC3 p53 Y220C; CellTiter-Glo) [nM] | IC50 (H1299 p53 Y220C; CellTiter-Glo) [nM] | IC50 (H1299 p53 R273H; CellTiter-Glo) [nM] | Kd [1] [nM] |
| --- | --- | --- | --- | --- | --- | --- | --- | --- | --- | --- | --- | --- |
| CN1CC[C@@H](Nc2cccn3c(SC(F)(F)F)c(C#CCNc4ccc(C(=O)NC[C@H](O)CO)cc4)cc23)[C@@H](F)C1 [Example 460] | < 10 | < 750 | > 90 | < 750 | < 750 | ≥ 10000 | – | – | – | – | – | – |
| CN1CC[C@@H](Nc2cccn3c(SC(F)(F)F)c(C#CCNc4ccc(C(=O)NCC5COC5)cc4)cc23)[C@@H](F)C1 [Example 447] | < 10 | – | – | – | – | – | < 750 | > 90 | < 750 | < 750 | ≥ 10000 | – |
| COc1cc(C(=O)NC[C@H](O)CO)ccc1NCC#Cc1cc2c(N[C@@H]3CCN(C)C[C@@H]3F)cccn2c1SC(F)(F)F [Example 422] | < 10 | – | – | – | – | – | < 750 | > 90 | < 750 | < 750 | ≥ 10000 | – |
| COc1ccc(C(N)=O)cc1NCC#Cc1nn2c(N[C@@H]3CCN(C)C[C@@H]3F)cccc2c1SC(F)(F)F [Example 232] | < 10 | – | – | – | – | – | < 750 | 80 to 90 | < 750 | < 750 | ≥ 10000 | – |
| C[C@@H](O)CNC(=O)c1ccc(NCC#Cc2cc3c(N[C@@H]4CCNC[C@@H]4F)cccn3c2SC(F)(F)F)cc1 [Example 397] | < 10 | – | – | – | – | – | < 750 | > 90 | < 750 | < 750 | 5000 to 8000 | – |
| CNC(=O)c1cnc(OC)c(NCC#Cc2cc3c(N[C@@H]4CN(C)C[C@@H]4F)nccn3c2SC(F)(F)F)c1 [Example 330] | < 10 | – | – | – | – | – | < 750 | > 90 | < 750 | < 750 | ≥ 10000 | – |
| CNC(=O)c1cc(NCC#Cc2nc3c(N[C@@H]4CCN(C)C[C@@H]4F)cccn3c2SC(F)(F)F)c(OC)nn1 [Example 259] | < 10 | – | – | – | – | – | < 750 | > 90 | < 750 | < 750 | ≥ 10000 | – |
| CN1CC[C@@H](Nc2cccn3c(SC(F)(F)F)c(C#CCNc4ccc(P(C)(C)=O)nc4)cc23)[C@@H](F)C1 [Example 420, 2-(3-{[6-(dimethylphosphoryl)pyridin-3-yl]amino}prop-1-yn-1-yl)-N-[(3S,4R)-3-fluoro-1-methylpiperidin-4-yl]-3-[(trifluoromethyl)sulfanyl]indolizin-8-amine] | < 10 | – | – | – | – | – | < 750 | 80 to 90 | < 750 | < 750 | ≥ 10000 | – |
| CN1CC[C@@H](Nc2cccn3c(SC(F)(F)F)c(C#CCNc4ccc(C(=O)N[C@H]5C[C@@H](O)C5)cc4)cc23)[C@@H](F)C1 [Example 465] | < 10 | < 750 | > 90 | < 750 | < 750 | ≥ 10000 | – | – | – | – | – | – |
| CN1CC[C@@H](Nc2cccn3c(SC(F)(F)F)c(C#CCNc4cc(C(=O)NCC5(O)CC5)ccc4OC4COC4)cc23)[C@@H](F)C1 [Example 409] | < 10 | – | – | – | – | – | < 750 | > 90 | < 750 | < 750 | ≥ 10000 | – |
| O=C(NCC1COC1)c1ccc(NCC#Cc2cc3c(N[C@@H]4CCNC[C@@H]4F)cccn3c2SC(F)(F)F)cc1 [Example 364] | < 10 | – | – | – | – | – | < 750 | 70 to 80 | < 750 | < 750 | < 5000 | – |
| CNS(=O)(=O)c1ccc(OC)c(NCC#Cc2cc3c(N[C@@H]4CCN(C)C[C@@H]4F)nccn3c2SC(F)F)c1 [Example 334] | 10 to 100 | – | – | – | – | – | > 3000 | 80 to 90 | > 3000 | 1500 to 3000 | ≥ 10000 | – |
| CNC(=O)c1ccc(OC)c(NCC#Cc2cc3c(N[C@@H]4CCNC[C@@H]4F)nccn3c2SC(F)F)c1 [Example 326] | < 10 | – | – | – | – | – | < 750 | > 90 | < 750 | < 750 | ≥ 10000 | – |
| CNC(=O)c1ccc(NCC#Cc2cc3c(N[C@@H]4CCNC[C@@H]4F)nccn3c2SC(F)(F)F)cc1 [Example 298] | – | – | – | – | – | – | < 750 | > 90 | < 750 | < 750 | ≥ 10000 | < 10 |
| CN1CC[C@@H](Nc2cccn3c(SC(F)(F)F)c(C#CCNc4ccc(P(C)(C)=O)c5c4OCC5)cc23)[C@@H](F)C1 [Example 449] | < 10 | – | – | – | – | – | < 750 | > 90 | < 750 | < 750 | 5000 to 8000 | – |
| CNC(=O)c1ccc(NCC#Cc2cc3c(N[C@@H]4CCN(C)C[C@@H]4F)cccn3c2SC(F)(F)F)c(C(=O)NC)c1 [Example 493, 4-{[3-(8-{[(3S,4R)-3-fluoro-1-methylpiperidin-4-yl]amino}-3-[(trifluoromethyl)sulfanyl]indolizin-2-yl)prop-2-yn-1-yl]amino}-N1,N3-dimethylbenzene-1,3-dicarboxamide] | < 10 | < 750 | > 90 | < 750 | < 750 | ≥ 10000 | – | – | – | – | – | – |
| CNC(=O)c1ccc(OC)c(NCC#Cc2cc3c(N[C@@H]4CCN(CC(C)O)C[C@@H]4F)cccn3c2SC(F)(F)F)c1 (single isomer, unassigned) [Example 480, 3-{[3-(8-{[(3S,4R)-3-fluoro-1-[(2R*)-2-hydroxypropyl]piperidin-4-yl]amino}-3-[(trifluoromethyl)sulfanyl]indolizin-2-yl)prop-2-yn-1-yl]amino}-4-methoxy-N-methylbenzamide] | < 10 | < 750 | > 90 | < 750 | < 750 | 8000 to 10000 | – | – | – | – | – | – |
| COc1cc(C(=O)NCC(C)(C)O)ccc1NCC#Cc1cc2c(N[C@@H]3CCNC[C@@H]3F)cccn2c1SC(F)(F)F [Example 408] | < 10 | – | – | – | – | – | < 750 | 80 to 90 | < 750 | < 750 | 5000 to 8000 | – |
| CNC(=O)c1ccc(OC)c(NCC#Cc2cc3c(N[C@@H]4CCN(C[C@H](C)O)C[C@@H]4F)nccn3c2SC(F)(F)F)c1 [Example 448] | < 10 | – | – | – | – | – | < 750 | > 90 | < 750 | < 750 | 5000 to 8000 | – |
| CC(C)(O)CNC(O)c1ccc(NCC#Cc2cc3c(N[C@@H]4CCNC[C@@H]4F)cccn3c2SC(F)(F)F)cc1 (stereo partly drawn) [Example 372] | < 10 | – | – | – | – | – | < 750 | > 90 | < 750 | < 750 | 8000 to 10000 | – |

Reference: patent US20260374766A1, “METHODS FOR TREATING CANCER” (Antares Therapeutics, Inc., priority 2022, published 2026)
